Read-outs that look alike come from different tables or passages of the source.
Legend:
[1] = tested on: P-IKKα levels in L363 (NIK translocated multiple myeloma) cells; experiment: Effect of compounds on P-IKKα levels in L363 cells (Mesoscale sandwich immuno-assay), Biological Assay B; type: cell-based, human; settings: 2 hr treatment, averaged values, read-out: Inhibition of pIKKα_L-363 (IC50 (nM))
Method: Effect of Compounds on P-IKKα Levels in L363 (NIK Translocated Multiple Myeloma) Cells
All compounds tested were dissolved in DMSO and further dilutions were made in culture medium. Final DMSO concentration was 1% (v/v) in cell assays. The human L363 cells (ATCC) were cultured in RPMI 1640 medium supplemented with GlutaMax and 10% fetal calf serum (PAA). Cells were routinely maintained at densities of 0.2×10^6 cells per ml-1×10^6 cells per ml at 37° C. in a humidified 5% CO2 atmosphere. Cells were passaged twice a week splitting back to obtain the low density. Cells were seeded in 96 well plates (Nunc 167008) at 2×10^6 per ml media in a volume of 75 μl per well plus 25 μl 1 μg/ml recombinant human B-cell activating factor (BAFF/BLyS/TNFSF13B). Seeded cells were incubated at 37° C. in a humidified 5% CO2 atmosphere for 24 hr. Drugs and/or solvents were added (20 μl) to a final volume of 120 μl. Following 2 hr treatment plates were removed from the incubator and cell lysis was achieved by the addition of 30 μl 5× lysis buffer followed by shaking on a plate shaker at 4° C. for 10 min. At the end of this incubation lysed cells were centrifuged at 800×g for 20 min at 4° C. and the lysate was assessed for P-IKKα levels by sandwich immuno-assay carried out in anti-rabbit antibody coated Mesoscale plates. Within an experiment, the results for each treatment were the mean of 2 replicate wells. For initial screening purposes, compounds were tested using an 8 point dilution curve (serial 1:3 dilutions). For each experiment, controls (containing MG132 and BAFF but no test drug) and a blank incubation (containing MG132 and BAFF and 10 μM ADS125117, a test concentration known to give full inhibition) were run in parallel. The blank incubation value was subtracted from all control and sample values. To determine the IC50 a sigmoidal curve was fitted to the plot of % inhibition of control P-IKKα levels versus Log10 compound concentration.
Note: Compounds 237 and 238 were tested at a maximum top concentration of 823 nM.

[2] = molecular target: recombinant human NF-kappaB-inducing kinase (NIK/MAP3K14) (Homo sapiens, UniProt Q99558); experiment: Inhibition of auto-phosphorylation of recombinant human NIK/MAP3K14 activity (AlphaScreen), Biological Assay A; type: biochemical; settings: averaged values over all measurements on all batches
How it was run: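 GST-tagged enzyme (0.2 nM) incubated with compound and 25 μM ATP in 50 mM Tris pH 7.5, 5 mM MgCl2, 1 mM EGTA, 1 mM DTT, 0.1 mM Na3VO4, 1% DMSO, 1 h at 25 °C. Stopped with anti-phospho-IKK Ser176/180 antibody; AlphaScreen bead read, blank-subtracted, IC50 from sigmoidal fit.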

[3] = tested on: KMS12-BM (NIK WT) multiple myeloma cells; experiment: Antiproliferative activity on KMS12-BM multiple myeloma cells (CellTiter-Glo, 96 hr), Biological Assay C; type: cell-based, human; settings: averaged values, read-out: KMS-12 Proliferation inhibition (IC50 (nM))
How it was run: (§1)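 JJN-3 and KMS12-BM cells in RPMI 1640 with 10% FCS were plated at 15000–20000 cells/well and treated 96 h with a 9-point 1:3 dilution series (0.3% DMSO). Viability read by CellTiter-Glo luminescence, blank (time-zero cells) subtracted, expressed as % of untreated control; duplicate wells.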

[4] = tested on: JJN-3 (NIK translocated) multiple myeloma cells; experiment: Antiproliferative activity on JJN-3 multiple myeloma cells (CellTiter-Glo, 96 hr), Biological Assay C; type: cell-based, human; settings: JJN-3 (NIK translocated) cells, averaged values, read-out: JJN-3 Proliferation inhibition (IC50 (nM))
How it was run: as §1

Sequence of recombinant human NF-kappaB-inducing kinase (NIK/MAP3K14) (Q99558 whole entry): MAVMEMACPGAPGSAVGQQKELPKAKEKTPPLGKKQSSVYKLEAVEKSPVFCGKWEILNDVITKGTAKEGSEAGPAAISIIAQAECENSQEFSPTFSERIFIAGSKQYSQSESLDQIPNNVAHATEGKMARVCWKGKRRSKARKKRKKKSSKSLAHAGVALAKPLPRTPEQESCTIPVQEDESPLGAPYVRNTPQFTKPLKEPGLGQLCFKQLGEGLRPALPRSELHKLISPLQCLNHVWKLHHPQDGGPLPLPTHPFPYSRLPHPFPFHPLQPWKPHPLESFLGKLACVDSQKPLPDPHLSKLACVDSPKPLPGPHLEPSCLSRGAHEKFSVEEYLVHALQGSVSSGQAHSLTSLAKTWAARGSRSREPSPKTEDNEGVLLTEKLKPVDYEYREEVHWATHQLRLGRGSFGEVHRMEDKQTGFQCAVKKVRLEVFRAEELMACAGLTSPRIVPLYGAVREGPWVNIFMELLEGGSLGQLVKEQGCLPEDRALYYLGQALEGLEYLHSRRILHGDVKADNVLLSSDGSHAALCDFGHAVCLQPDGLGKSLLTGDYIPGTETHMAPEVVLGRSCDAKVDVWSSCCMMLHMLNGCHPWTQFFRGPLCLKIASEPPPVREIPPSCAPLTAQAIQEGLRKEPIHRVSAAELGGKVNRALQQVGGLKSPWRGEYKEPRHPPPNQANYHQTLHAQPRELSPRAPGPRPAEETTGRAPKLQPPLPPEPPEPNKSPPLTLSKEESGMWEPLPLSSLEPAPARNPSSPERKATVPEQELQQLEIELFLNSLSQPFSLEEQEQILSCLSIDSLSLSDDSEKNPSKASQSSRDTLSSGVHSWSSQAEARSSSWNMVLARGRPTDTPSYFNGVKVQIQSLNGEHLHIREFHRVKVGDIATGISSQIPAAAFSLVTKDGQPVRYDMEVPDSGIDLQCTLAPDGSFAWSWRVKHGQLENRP

IC50 ([1]; Homo sapiens, L-363, 2 h) [nM] | melting point [°C] | IC50 [2] [nM] | IC50 ([3]; Homo sapiens, KMS-12-BM, 96 h) [nM] | IC50 ([4]; Homo sapiens, JJN-3, 96 h) [nM] | IC50 [1] [nM] | IC50 [3] [nM] | IC50 [4] [nM] | Structure (SMILES)
> 10000 | 115 | 2510 | – | – | – | – | – | COCCOc1ccc(P(C)(C)=O)cc1Nc1nccc(-c2cc(C#N)c3c(c2)[C@@](C)(CO)CN3)n1 [Compound 5]
> 10000 | 148 | 447 | – | – | – | – | – | C[C@]1(CO)CNc2c(C#N)cc(-c3ccnc(Nc4cc(P(C)(C)=O)ccc4OCC4CC4)n3)cc21 [Compound 6]
41.7 | – | 11.3 | > 10000 | 57 | – | – | – | COc1cc(S(C)(=O)=O)c(Cl)cc1Nc1nccc(-c2cc(C#N)c3c(c2)C(C)(C)CN3)n1 [Compound 85]
93.3 | – | 7.1 | 1180 | 35 | – | – | – | CCN1CCN(Cc2cc(OC)c(Nc3nccc(-c4cc(C#N)c5c(c4)C(C)(C)CN5)n3)cc2Cl)CC1 [Compound 87]
– | – | 0.9 | – | – | 2.8 | 5500 | 91 | Cc1ccc(C#N)cc1Nc1nccc(-c2cc(C#N)c3c(c2)[C@@](C)(CO)CN3)n1 [Compound 134]
4370 | 166 | 58.9 | – | – | – | – | – | Cc1ccc(C#N)cc1Nc1nccc(-c2cc(C#N)c3c(c2)[C@@](C)(C(C)(C)O)CN3)n1 [Compound 135]
2.1 | – | 11.2 | ~4790 | 102 | – | – | – | Cc1ccc(C#N)cc1Nc1nccc(-c2cc(C#N)c3c(c2)[C@@](C)(COC(=O)[C@H](C)N)CN3)n1 [Compound 138]
~1170 | – | 5.8 | > 10000 | ~10000 | – | – | – | Cc1ccc(C#N)cc1Nc1nccc(-c2cc(C#N)c3c(c2)[C@](C)(COS(=O)(=O)O)CN3)n1 [Compound 144]
1.2 | – | 3.9 | > 10000 | 302 | – | – | – | Cc1ccc(C#N)cc1Nc1ncc(F)c(-c2cc(C#N)c3c(c2)[C@@](C)(CO)CN3)n1 [Compound 147]
8.9 | – | 4.7 | > 10000 | 523 | – | – | – | [2H]C([2H])(O)c1cc(Nc2nccc(-c3cc(C#N)c4c(c3)[C@@](C)(CO)CN4)n2)c(C)cc1F [Compound 148]
2.2 | – | 0.8 | > 10000 | 91 | – | – | – | [2H]C([2H])(O)c1ccc(C)c(Nc2nccc(-c3cc(C#N)c4c(c3)[C@@](C)(CO)CN4)n2)c1 [Compound 150]
427 | 122 | 22.4 | – | – | – | – | – | Cc1ccc(C(C)(C)O)cc1Nc1nccc(-c2cc(C#N)c3c(c2)[C@@](C)(CO)CN3)n1 [Compound 151]
7.8 | – | 2.3 | > 10000 | 272 | – | – | – | Cc1cc(F)c(CO)cc1Nc1nccc(-c2cc(C#N)c3c(c2)[C@@](C)(CO)CN3)n1 [Compound 152]
6.3 | – | 1.3 | > 10000 | 240 | – | – | – | C[C@]1(CO)CNc2c(C#N)cc(-c3ccnc(Nc4cc(C#N)ccc4CO)n3)cc21 [Compound 153]
6.6 | – | 1.4 | > 10000 | 141 | – | – | – | CC(C)Oc1ccc(CO)cc1Nc1nccc(-c2cc(C#N)c3c(c2)[C@@](C)(CO)CN3)n1 [Compound 154]
91.2 | – | 5.4 | > 10000 | 1230 | – | – | – | Cc1ccc(C(=O)NCCN2CCCC2)cc1Nc1nccc(-c2cc(C#N)c3c(c2)[C@@](C)(CO)CN3)n1 [Compound 158]
407 | 245 | 20.4 | – | – | – | – | – | Cc1ccc(C(=O)N2CCN(C)CC2)cc1Nc1nccc(-c2cc(C#N)c3c(c2)[C@@](C)(CO)CN3)n1 [Compound 161]

Reference: patent publication US11180487B2, “Substituted cyanoindoline derivatives as NIK inhibitors” (Janssen Pharmaceutica NV, priority 2016, dated 2021)
